Test results reported in publication PMC3640384, “HPN, a Synthetic Analogue of Bromophenol from Red Alga Rhodomela confervoides: Synthesis and Anti-Diabetic Effects in C57BL/KsJ-db/db Mice” (Marine Drugs, 2013).

Biological target: T1, protein tyrosine phosphatase 1B (PTP1B) (Homo sapiens, UniProt P18031)
T1 construct: gene PTPN1; Recombinant human GST-PTP1B (hGST-PTP1B)
T1 sequence (P18031 1-435): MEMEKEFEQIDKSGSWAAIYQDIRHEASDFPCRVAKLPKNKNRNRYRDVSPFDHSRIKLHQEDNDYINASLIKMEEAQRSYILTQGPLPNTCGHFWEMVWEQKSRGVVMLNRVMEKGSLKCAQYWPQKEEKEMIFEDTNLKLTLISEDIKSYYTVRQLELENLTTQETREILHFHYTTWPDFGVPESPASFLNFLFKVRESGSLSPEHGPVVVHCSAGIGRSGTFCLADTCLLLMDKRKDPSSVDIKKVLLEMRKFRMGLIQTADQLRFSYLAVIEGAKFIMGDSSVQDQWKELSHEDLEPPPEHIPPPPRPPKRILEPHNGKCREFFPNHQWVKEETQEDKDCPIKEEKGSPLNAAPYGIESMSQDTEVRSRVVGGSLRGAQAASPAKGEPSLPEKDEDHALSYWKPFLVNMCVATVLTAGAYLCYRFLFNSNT
Experiment: pNPP hydrolysis assay at […] nm with recombinant GST-PTP1B
Assay type: biochemical

IC50: 630 nM
SMILES: CC(C)OCc1cc(O)c(O)c(Br)c1Cc1cc(O)c(O)c(Br)c1Br [HPN, 3,4-dibromo-5-(2-bromo-3,4-dihydroxy-6-(isopropoxymethyl)benzyl)benzene-1,2-diol]
